Source: PubChem BioAssay AID602167 (The Scripps Research Institute Molecular Screening Center, 2012)
Activity calls are given as the source filed them. How the calls were made is not given here.

These compounds were tested against transactivating tegument protein VP16 (Human herpesvirus 1), as a GAL4-VP16 activation-domain luciferase reporter (assay: VP16 transactivation inhibitor potency, dose response, counter-screen for SRC3 inhibitor project, cell-based, luminescence, high throughput, SRC3 series (AID 602167)). Conditions: VP16 transactivation luciferase reporter cells.

IC50 | SMILES
inactive | CN1CCN(c2ccc(NC(=O)N3CCc4ccccc43)cc2)CC1
inactive | Cc1nc([N+](=O)[O-])c(Sc2nc3ccccc3n2C)n1Cc1ccccc1
8.52 µM | O=C(N/N=C(\c1ccccc1)c1ccccn1)c1ccccc1Cl
9.08 µM | COc1ccc(COC(=O)C2=C(C)NC(=O)NC2c2ccc(F)cc2)cc1 (configuration not stated)
inactive | O=C(NCc1ccccc1)c1c(Cl)nc(Cl)c(Cl)c1Cl
7.3 µM | C=CCOn1c(C)c(C(C)=O)c2c3nonc3ccc21
7.96 µM | S=C(Nc1ccccc1)Nc1ccc(OCc2ccc(Cl)cc2Cl)cc1
